From publication PMC10743905, “Design, Synthesis, and In Vitro and In Vivo Bioactivity Studies of Hydrazide–Hydrazones of 2,4-Dihydroxybenzoic Acid” (International Journal of Molecular Sciences, 2023)
Values after ≈ are worked out from the molar mass of the structure shown.

Assays:
[1] = tested on: Micrococcus luteus ATCC 10240; experiment: Broth microdilution MIC/MBC; format: cell-based; details: for MBC: ATCC10240; for MIC: ATCC10240, read-out: MIC
From the text: (§1) In vitro antimicrobial activity assays - Methodology
(§2) The examined compounds 1 - 24 were screened in vitro for antibacterial and antifungal activities using the broth microdilution method according to procedure reported earlier by our research group and European Committee on Antimicrobial Susceptibility Testing (EUCAST) and Clinical and Laboratory Standards Institute (CLSI) guidelines against a panel of reference and clinical or saprophytic strains of microorganisms, in-cluding Gram-positive bacteria, Staphylococcus aureus ATCC 43300 (Methicillin Resistant S. aureus – MRSA), Staphylococcus aureus ATCC 29213 (Methicillin Susceptible S. aureus – MSSA), Staphylococcus epidermidis ATCC 12228, Enterococcus faecalis ATCC 29212, Micro-coccus luteus ATCC 10240, Bacillus subtilis ATCC 6633 and Bacillus cereus ATCC 10876), Gram-negative bacteria (Bordetella bronchiseptica ATCC 4617, Escherichia coli ATCC 25922, Klebsiella pneumoniae ATCC 13883, Proteus mirabilis ATCC 12453, Salmonella typhimurium ATCC 14028 and Pseudomonas aeruginosa ATCC 9027) and fungi belonging to yeasts (Can-dida albicans ATCC 10231, Candida albicans ATCC 2091, Candida parapsilosis ATCC 22019, Candida glabrata ATCC 90030 and Candida krusei ATCC 14243). The microorganisms be-longing to ATCC came from American Type Culture Collection, routinely used for the evaluation of antimicrobials. […]
(§3) Samples containing examined compounds were dissolved in dimethyl sulfoxide (DMSO). […]
(§4) Subsequently, the MIC (Minimal Inhibitory Concentration) of the compounds was ex-amined by the microdilution broth method, using their two-fold dilutions in Mueller- […]
(§5) Hinton broth or (for bacteria) and RPMI 1640 broth with MOPS (for fungi) prepared in 96-well polystyrene plates. Final concentrations of the compounds ranged from 1000 to 0.488 µg/ml. Microbial suspensions were prepared in 0.85% NaCl with an optical density of 0.5 McFarland standard. Next each bacterial or fungal suspension was added per each well containing broth and various concentrations of the examined compounds. After incuba-

[2] = tested on: Proteus mirabilis ATCC 12453; experiment: Broth microdilution MIC/MBC; format: cell-based; details: ATCC12453
From the text: as §1, §2, §3, §4, §5

[3] = tested on: Pseudomonas aeruginosa ATCC 9027; experiment: Broth microdilution MIC/MBC; format: cell-based; details: ATCC9027
From the text: as §1, §2, §3, §4, §5

[4] = tested on: Salmonella typhimurium ATCC 14028; experiment: Broth microdilution MIC/MBC; format: cell-based; details: Salmonella enterica
From the text: as §1, §2, §3, §4, §5

[5] = tested on: Staphylococcus aureus ATCC 29213; experiment: Broth microdilution MIC/MBC; format: cell-based; details: for MBC / MIC: ATCC29213
From the text: as §1, §2, §3, §4, §5

[6] = tested on: Staphylococcus aureus ATCC 43300; experiment: Broth microdilution MIC/MBC; format: cell-based; details: Staphylococcus aureus ATCC 43300 (MRSA)
From the text: as §1, §2, §3, §4, §5

[7] = tested on: Staphylococcus epidermidis ATCC 12228; experiment: Broth microdilution MIC/MBC; format: cell-based; details: for MBC: ATCC12228; for MIC: ATCC12228, read-out: MIC
From the text: as §1, §2, §3, §4, §5

[8] = tested on: Bacillus subtilis ATCC 6633; experiment: Broth microdilution MIC/MBC; format: cell-based; details: for MIC: ATCC6633, read-out: MIC
From the text: Detailed procedures are presented in the Supplementary Materials. […]
as §1
as §2, with “antimicrobials. All the used microbial cultures were first subcultured on nu-trient agar or Sabouraud agar at 35°C for 18-24 h or 30°C for 24-48 h for bacteria and fungi,” for “antimicrobials.”
(§6) The surface of Mueller-Hinton agar (for bacteria) and RPMI 1640 with MOPS (for fungi) were inoculated with the suspensions of bacterial or fungal species. Microbial suspensions were prepared in sterile saline with an optical density of McFarland standard scale 0.5.
(§7) Samples containing examined compounds were dissolved in dimethyl sulfoxide (DMSO).
(§8) Furthermore, bacterial and fungal suspensions were put onto Petri dishes with solid me-dia containing 2 mg/mL of the tested compounds followed incubation at 37°C for 24h and 30°C for 48h for bacteria and fungi, respectively. The inhibition of microbial growth was judged by comparison with a control culture prepared without any sample tested. Ciprof-loxacin, vancomycin, nitrofurantoin, cefuroxime, ampicillin or nystatin (Sigma) were used as a reference antibacterial or antifungal compounds, respectively.
as §4, §5

[9] = tested on: Bacillus cereus ATCC 10876; experiment: Broth microdilution MIC/MBC; format: cell-based; details: for MBC: ATCC10876; for MIC: ATCC10876, read-out: MIC
From the text: as §1
as §2, with “antimicrobials. All the used microbial cultures were first subcultured on nu-trient agar or Sabouraud agar at 35°C for 18-24 h or 30°C for 24-48 h for bacteria and fungi,” for “antimicrobials.”
as §6, §7, §8, §4, §5

[10] = tested on: Bordetella bronchiseptica ATCC 4617; experiment: Broth microdilution MIC/MBC; format: cell-based; details: ATCC4617
From the text: as §1
as §2, with “antimicrobials. All the used microbial cultures were first subcultured on nu-trient agar or Sabouraud agar at 35°C for 18-24 h or 30°C for 24-48 h for bacteria and fungi,” for “antimicrobials.”
as §6, §7, §8, §4, §5

[11] = tested on: Enterococcus faecalis ATCC 29212; experiment: Broth microdilution MIC/MBC; format: cell-based; details: ATCC29212, read-out: MIC
From the text: as §1
as §2, with “antimicrobials. All the used microbial cultures were first subcultured on nu-trient agar or Sabouraud agar at 35°C for 18-24 h or 30°C for 24-48 h for bacteria and fungi,” for “antimicrobials.”
as §6, §7, §8, §4, §5

[12] = tested on: Escherichia coli ATCC 25922; experiment: Broth microdilution MIC/MBC; format: cell-based; details: ATCC25922
From the text: as §1
as §2, with “antimicrobials. All the used microbial cultures were first subcultured on nu-trient agar or Sabouraud agar at 35°C for 18-24 h or 30°C for 24-48 h for bacteria and fungi,” for “antimicrobials.”
as §6, §7, §8, §4, §5

[13] = tested on: Klebsiella pneumoniae ATCC 13883; experiment: Broth microdilution MIC/MBC; format: cell-based; details: ATCC13883
From the text: as §1
as §2, with “antimicrobials. All the used microbial cultures were first subcultured on nu-trient agar or Sabouraud agar at 35°C for 18-24 h or 30°C for 24-48 h for bacteria and fungi,” for “antimicrobials.”
as §6, §7, §8, §4, §5

[14] = tested on: Candida albicans ATCC 10231; experiment: Broth microdilution MIC/MFC; format: cell-based; details: for MFC: ATCC10231, read-out: MFC; for MIC: ATCC10231, read-out: MIC
From the text: as §1
as §2, with “antimicrobials. All the used microbial cultures were first subcultured on nu-trient agar or Sabouraud agar at 35°C for 18-24 h or 30°C for 24-48 h for bacteria and fungi,” for “antimicrobials.”
as §6, §7, §8, §4, §5

[15] = tested on: Candida albicans ATCC 2091; experiment: Broth microdilution MIC/MFC; format: cell-based; details: for MFC: ATCC2091, read-out: MFC; for MIC: ATCC2091, read-out: MIC
From the text: as §1
as §2, with “antimicrobials. All the used microbial cultures were first subcultured on nu-trient agar or Sabouraud agar at 35°C for 18-24 h or 30°C for 24-48 h for bacteria and fungi,” for “antimicrobials.”
as §6, §7, §8, §4, §5

[16] = tested on: Candida glabrata ATCC 90030; experiment: Broth microdilution MIC/MFC; format: cell-based; details: Nakaseomyces glabratus, ATCC90030, read-out: MIC
From the text: as §1
as §2, with “antimicrobials. All the used microbial cultures were first subcultured on nu-trient agar or Sabouraud agar at 35°C for 18-24 h or 30°C for 24-48 h for bacteria and fungi,” for “antimicrobials.”
as §6, §7, §8, §4, §5

[17] = tested on: Candida krusei ATCC 14243; experiment: Broth microdilution MIC/MFC; format: cell-based; details: Pichia kudriavzevii, ATCC14243, read-out: MIC
From the text: as §1
as §2, with “antimicrobials. All the used microbial cultures were first subcultured on nu-trient agar or Sabouraud agar at 35°C for 18-24 h or 30°C for 24-48 h for bacteria and fungi,” for “antimicrobials.”
as §6, §7, §8, §4, §5

[18] = tested on: Candida parapsilosis ATCC 22019; experiment: Broth microdilution MIC/MFC; format: cell-based; details: for MIC: ATCC22019, read-out: MIC
From the text: as §1
as §2, with “antimicrobials. All the used microbial cultures were first subcultured on nu-trient agar or Sabouraud agar at 35°C for 18-24 h or 30°C for 24-48 h for bacteria and fungi,” for “antimicrobials.”
as §6, §7, §8, §4, §5

Row | SMILES | MBC/MIC [1] | MBC [1] [µg/mL] | MIC [1] [µg/mL] | MIC [2] [µg/mL] | MIC [3] [µg/mL] | MIC [4] [µg/mL] | MBC/MIC [5] | MBC [5] [µg/mL] | MIC [5] [µg/mL] | MIC [6] [µg/mL] | MBC/MIC [7] | MBC [7] [µg/mL] | MIC [7] [µg/mL] | MIC [8] [µg/mL] | MBC/MIC [9] | MBC [9] [µg/mL] | MIC [9] [µg/mL] | MIC [10] [µg/mL] | MIC [11] [µg/mL] | MIC [12] [µg/mL] | other results
1 | CCCOc1ccc(/C=N/NC(=O)c2ccc(O)cc2O)cc1 [Compound 6, 2,4-dihydroxy-N-[(4-propoxyphenyl)methylidene]benzohydrazide] | > 1 | > 1000 | 1000 (≈ 3.18 mM) | > 1000 | > 1000 | > 1000 | > 1 | > 1000 | 1000 (≈ 3.18 mM) | 1000 (≈ 3.18 mM) | > 1 | > 1000 | 1000 (≈ 3.18 mM) | 1000 (≈ 3.18 mM) | > 1 | > 1000 | 1000 (≈ 3.18 mM) | > 1000 | > 1000 | > 1000 | MBC [6]: > 1000 µg/mL; MBC/MIC [6]: > 1; MBC/MIC [8]: > 1; MBC ([8]; ATCC6633): > 1000 µg/mL; MIC [13]: > 1000 µg/mL; MFC/MIC [14]: > 1; MFC [14]: > 1000 µg/mL; MIC [14]: 1000 µg/mL (≈ 3.18 mM); MFC/MIC [15]: > 2; MFC [15]: > 1000 µg/mL; MIC [15]: 500 µg/mL (≈ 1.59 mM); MIC [16]: > 1000 µg/mL; MIC [17]: > 1000 µg/mL; MFC/MIC [18]: > 1; MFC ([18]; Lodderomyces parapsilosis, ATCC22019, read-out: MFC): > 1000 µg/mL; MIC ([18]; Lodderomyces parapsilosis): 1000 µg/mL (≈ 3.18 mM); melting point: 251 °C
2 | CCCCOc1ccc(/C=N/NC(=O)c2ccc(O)cc2O)cc1 [Compound 7, N-[(4-butoxyphenyl)methylidene]-2,4-dihydroxybenzohydrazide] | > 1 | > 1000 | 1000 (≈ 3.05 mM) | > 1000 | > 1000 | > 1000 | > 1 | > 1000 | 1000 (≈ 3.05 mM) | > 1000 | 2 | 1000 (≈ 3.05 mM) | 500 (≈ 1.52 mM) | > 1000 | > 1 | > 1000 | 1000 (≈ 3.05 mM) | > 1000 | > 1000 | > 1000 | MIC [13]: > 1000 µg/mL; MFC/MIC [14]: > 1; MFC [14]: > 1000 µg/mL; MIC [14]: 1000 µg/mL (≈ 3.05 mM); MFC/MIC [15]: > 2; MFC [15]: > 1000 µg/mL; MIC [15]: 500 µg/mL (≈ 1.52 mM); MIC [16]: > 1000 µg/mL; MIC [17]: > 1000 µg/mL; MIC ([18]; Lodderomyces parapsilosis): > 1000 µg/mL; melting point: 246 °C
